Results from US9290511B2, “Thieno-pyrimidines, useful as potassium channel inhibitors” (XENTION LIMITED, priority 2011, dated 2016).

Target: T1, Kir3.1/3.4 (Rattus norvegicus, UniProt P48548+P63251)
T1 construct: expressed in transfected cells
T1 sequence (P63251 1-501): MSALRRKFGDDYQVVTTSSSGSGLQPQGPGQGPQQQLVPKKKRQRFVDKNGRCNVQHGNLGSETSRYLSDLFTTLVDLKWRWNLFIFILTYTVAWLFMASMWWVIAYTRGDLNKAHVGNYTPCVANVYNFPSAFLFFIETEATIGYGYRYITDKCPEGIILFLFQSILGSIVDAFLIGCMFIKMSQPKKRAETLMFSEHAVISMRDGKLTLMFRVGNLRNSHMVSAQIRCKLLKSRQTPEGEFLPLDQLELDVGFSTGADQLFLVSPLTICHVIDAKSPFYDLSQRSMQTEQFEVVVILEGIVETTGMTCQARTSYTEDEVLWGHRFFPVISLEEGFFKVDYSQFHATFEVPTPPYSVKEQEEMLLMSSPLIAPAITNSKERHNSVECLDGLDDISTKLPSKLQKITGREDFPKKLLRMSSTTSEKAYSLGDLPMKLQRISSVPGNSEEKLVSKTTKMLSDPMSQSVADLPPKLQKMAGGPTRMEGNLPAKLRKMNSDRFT
T1 sequence (P48548 1-419): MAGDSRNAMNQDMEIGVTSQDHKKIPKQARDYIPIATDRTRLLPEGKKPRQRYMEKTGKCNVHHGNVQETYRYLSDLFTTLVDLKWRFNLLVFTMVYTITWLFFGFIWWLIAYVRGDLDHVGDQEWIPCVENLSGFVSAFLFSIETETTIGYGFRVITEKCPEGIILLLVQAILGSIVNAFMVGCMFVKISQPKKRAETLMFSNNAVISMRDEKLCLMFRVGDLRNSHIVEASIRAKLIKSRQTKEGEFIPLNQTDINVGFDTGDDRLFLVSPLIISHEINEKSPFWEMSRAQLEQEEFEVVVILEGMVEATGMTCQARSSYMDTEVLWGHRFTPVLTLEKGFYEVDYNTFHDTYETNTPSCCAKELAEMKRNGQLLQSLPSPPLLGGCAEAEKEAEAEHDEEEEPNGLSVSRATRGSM
Assay: Kir3.1/3.4 Electrophysiology Method (manual whole-cell patch clamp)
Type: cell-based
Settings: Electrophysiology Method (TABLE 1)
Method: Compound activity against the recombinant G-protein activated inward rectifier current encoded by the heterotetramer Kir3.1/3.4 was assessed using manual whole-cell patch technique. The heterotetramer forms the pore-forming channel that conducts the acetylcholine/adenosine-activated potassium current in the heart.
For whole-cell patch-clamp studies, cells (Human Embryonic Kidney 293 stably transfected with rat Kir3.1/3.4) were seeded onto glass coverslips before recordings were made. Cells were seeded in sterile 30 mm Petri dishes at a density to enable isolated cells to be selected for patch clamp experiments. The dishes were stored in a humidified, gassed (5% CO2) incubator at 37° C. until use.
Whole-cell patch-clamp recordings of membrane currents were made following gigaohm seal formation between the patch electrode and the cell using HEKA EPC-9/10 amplifiers controlled by Pulse Software (Ver8.5x/8.6×/8.7×, HEKA, Germany). Coverslips seeded with cells were placed in a recording chamber mounted on the stage of an inverted microscope. During the experiment, the cell of interest was continuously superfused with bather solution delivered via a cannula placed in close proximity to the cell to enable control of the extracellular solution environment. Only those cells with a current <−500 pA (current at −140 mV) were used for experiments. During experiments, series resistance was compensated by a minimum of 70%.
Electrophysiology voltage-step protocols and analysis of data were performed as follows. Data was sampled at 5 kHz, and filtered with a −3 dB bandwidth of 2.5 kHz. Cells were held at a voltage of −60 mV. Currents were evoked by a depolarising voltage step to +60 mV (100 ms) before a ramp-repolarisation (0.4 V·s^−1) to −140 mV (100 ms) before returning to −60 mV. The command waveform was repeatedly applied every 10 s throughout the experiment. Mean currents during 1-99% of the time at −140 mV were analysed using Pulsefit software (v8.x, HEKA, Germany). The voltage protocol was repeatedly applied to achieve a stable current baseline in bather before the test substance was superfused via the cannula in close proximity to the cell under investigation. The test substance was allowed to equilibrate during which time voltage protocol was repeatedly applied and recorded. On reaching steady-state inhibition, the cell was superfused with an identical bather solution containing zero external potassium chloride (replaced by equimolar NaCl). The identical current measurement was made in the absence of potassium to assess the passive leak at −140 mV. The leak current was subtracted from the control and steady-state drug current values. The percentage inhibition of the leak-subtracted current in the presence of test substance was calculated relative to the control leak-subtracted pre-drug value. Internal patch-pipette solution contained in mM: 110 KCl, 20 NaCl, 0.9 GTPγS, 5 Mg-ATP, 5 EGTA, 10 HEPES, pH7.2 corrected with KOH. The external superfusate composition in mM was: 150 (or 160) NaCl, 10 (or 0) KCl, 3 CaCl2, 1 MgCl, 10 HEPES, pH 7.4 corrected with NaOH.

## CN1CCCC1COCC1CCN(c2ncnc3scc(-c4ccccc4)c23)CC1 (stereo not shown) [Example 7, 4-[4-[(1-methylpyrrolidin-2-yl)methoxymethyl]-1-piperidyl]-5-phenyl-thieno[2,3-d]pyrimidine]
  IC50: < 0.5 µM

## CC(C)c1csc2nc(N3CCC(COCCN4CCCC4)CC3)ncc12 [Example 157]
  IC50: < 0.5 µM

## CN1CCCC1CCNCC1CN(c2ncnc3scc(-c4ccccc4)c23)C1 (stereo not shown) [Example 219]
  IC50: < 0.5 µM

## OCCN(CCO)CC1CCN(c2ncnc3scc(-c4ccccc4)c23)CC1 [Example 186]
  IC50: 0.5 to 3 µM

## COCCN1CCN(c2nc(N3CCC(CN(C)C4CCN(C)C4)CC3)c3c(-c4ccccc4)csc3n2)CC1 (stereo not shown) [Example 122]
  IC50: < 0.5 µM

## c1ccc(-c2csc3ncnc(N4CCC(CN5CCC(N6CCCC6)C5)CC4)c23)cc1 (stereo not shown) [Example 76, 5-phenyl-4-[4-[(3-pyrrolidin-1-ylpyrrolidin-1-yl)methyl]-1-piperidyl]thieno[2,3-d]pyrimidine]
  IC50: < 0.5 µM

## O=C1CCCN1c1sc2nc(N3CCC(COCCN4CCCC4)CC3)ncc2c1-c1ccccc1 [Example 156]
  IC50: < 0.5 µM

## FC(F)(F)c1nc(N2C3CCC2CC(NC2CCC2)C3)c2c(-c3ccccc3)csc2n1 (stereo not shown) [Example 359]
  IC50: < 0.5 µM

## c1ccc(-c2csc3ncnc(N4CCC(COCCN5CCCC5)CC4)c23)nc1 [Example 320]
  IC50: 0.5 to 3 µM

## Cc1sc2ncnc(N3CCC(CNCCC4CCCN4C)CC3)c2c1C (stereo not shown) [Example 220]
  IC50: < 0.5 µM

## COc1ccccc1-c1csc2ncnc(N3C4CCC3CC(N(C)C3CCC3)C4)c12 (stereo not shown) [Example 350]
  IC50: < 0.5 µM

## CN1CCC(NC2CCN(c3ncnc4scc(-c5ccccc5)c34)CC2)CC1 [Example 223]
  IC50: < 0.5 µM

## FC(F)(F)Oc1ccccc1-c1csc2ncnc(N3C4CCC3CC(NC3CCC3)C4)c12 (stereo not shown) [Example 341]
  IC50: < 0.5 µM

## CC(=O)N(C)C1CCN(CC2CCN(c3ncnc4scc(-c5ccccc5)c34)CC2)C1 (stereo not shown) [Example 248]
  IC50: < 0.5 µM

## CC(C)c1cc2c(N3CCC(COCCC4CCCCN4C)CC3)ncnc2s1 (stereo not shown) [Example 25, 6-isopropyl-4-[4-[2-(1-methyl-2-piperidyl)ethoxymethyl]-1-piperidyl]thieno[2,3-d]pyrimidine]
  IC50: < 0.5 µM

## COCC1CCN(c2nc(NCCN(C)C)nc3scc(-c4ccccc4)c23)CC1 [Example 173]
  IC50: < 0.5 µM

## CN1CCCC1CCNC(=O)C1CCN(c2ncnc3scc(-c4ccccc4)c23)CC1 (stereo not shown) [Example 166, N-[2-(1-methylpyrrolidin-2-yl)ethyl]-1-(5-phenylthieno[2,3-d]pyrimidin-4-yl)piperidine-4-carboxamide]
  IC50: 0.5 to 3 µM

## c1ccc(-c2csc3ncnc(N4CCC(OCCN5CCCC5)C4)c23)cc1 (stereo not shown) [Example 269]
  IC50: < 0.5 µM

## c1ccc(-c2csc3ncnc(N4CCC(OCCCN5CCCC5)CC4)c23)cc1 [Example 296]
  IC50: < 0.5 µM

## O=C1CN(c2nc(N3CCC(CNC4CCC4)CC3)c3c(-c4ccccc4)csc3n2)CCN1 [Example 125]
  IC50: 0.5 to 3 µM

## c1ccc(-c2csc3ncnc(N4CCC(COC5CCC5)CC4)c23)cc1 [Example 9, 4-[4-(cyclobutoxymethyl)-1-piperidyl]-5-phenyl-thieno[2,3-d]pyrimidine]
  IC50: < 0.5 µM

## CN(C)C(=O)c1sc2ncnc(N3CCC(COCCN4CCCC4)CC3)c2c1-c1cccc(F)c1 [Example 138]
  IC50: < 0.5 µM

## Nc1nc(N2CCC(COCCN3CCCC3)CC2)c2c(-c3ccccc3)csc2n1 [Example 314, 5-phenyl-4-[4-(2-pyrrolidin-1-ylethoxymethyl)-1-piperidyl]thieno[2,3-d]pyrimidin-2-amine]
  IC50: < 0.5 µM

## COc1ncccc1-c1csc2ncnc(N3C4CCC3CC(COCCN3CCCC3)C4)c12 (stereo not shown) [Example 363]
  IC50: < 0.5 µM

## c1ccc(-c2csc3ncnc(N4CCC(CNCCN5CCCC5)CC4)c23)cc1 [Example 206]
  IC50: < 0.5 µM

## CC(C)c1csc2ncnc(N3CC4CC3CC4OCCN3CC4CC3CO4)c12 (stereo not shown) [Example 292, 5-[2-[[2-(5-isopropylthieno[2,3-d]pyrimidin-4-yl)-2-azabicyclo[2.2.1]heptan-5-yl]oxy]ethyl]-2-oxa-5-azabicyclo[2.2.1]heptane]
  IC50: 0.5 to 3 µM

## O=C1CN(CC2CCN(c3ncnc4scc(-c5ccccc5)c34)CC2)CCN1 [Example 213]
  IC50: 0.5 to 3 µM

## c1ccc(-c2csc3ncnc(N4CCC(CN5CCOC(c6ccccc6)C5)CC4)c23)cc1 (stereo not shown) [Example 56, 2-phenyl-4-[[1-(5-phenylthieno[2,3-d]pyrimidin-4-yl)-4-piperidyl]methyl]morpholine]
  IC50: < 0.5 µM

## OCCN(CCO)CC1CCN(c2ncnc3scc(C4CCCCC4)c23)CC1 [Example 201]
  IC50: < 0.5 µM

## NC(=O)C1CCN(c2nc(N3CCC(COCCN4CCOCC4)CC3)c3c(-c4ccccc4)csc3n2)C1 (stereo not shown) [Example 258]
  IC50: < 0.5 µM

## CN1CCC(N(C)CC2CCN(c3nc(N4CCC(C(N)=O)CC4)nc4scc(-c5ccccc5)c34)CC2)C1 (stereo not shown) [Example 239]
  IC50: < 0.5 µM

## NC(=O)[C@@H]1CCCN1CCOCC1C2CN(c3ncnc4scc(-c5ccc(F)cc5)c34)CC12 (stereo partly shown) [Example 277]
  IC50: < 0.5 µM

## O=C(CNCC1CCN(c2ncnc3scc(-c4ccccc4)c23)CC1)N1CCCC1 [Example 105]
  IC50: < 0.5 µM

## CN1CCC(N(C)CC2CCN(c3nc(N(C)CC(N)=O)nc4scc(-c5ccccc5)c34)CC2)C1 (stereo not shown) [Example 121]
  IC50: < 0.5 µM

## CN(C)C(=O)c1sc2ncnc(N3C4CCC3CC(N3CCCC3)C4)c2c1-c1ccccc1 (stereo not shown) [Example 353, N,N-dimethyl-5-phenyl-4-(3-pyrrolidin-1-yl-8-azabicyclo[3.2.1]octan-8-yl)thieno[2,3-d]pyrimidine-6-carboxamide]
  IC50: < 0.5 µM

## NC(=O)C1CCN(CCOCC2CCN(c3ncc4c(-c5ccccc5)csc4n3)CC2)C1 (stereo not shown) [Example 153]
  IC50: < 0.5 µM

## Fc1ccc(-c2csc3ncnc(N4CC5C(COCCN6CC[C@H](F)C6)C5C4)c23)cc1 (stereo partly drawn) [Example 47, 5-(4-fluorophenyl)-4-[6-[2-[(3S)-3-fluoropyrrolidin-1-yl]ethoxymethyl]-3-azabicyclo[3.1.0]hexan-3-yl]thieno[2,3-d]pyrimidine]
  IC50: < 0.5 µM

## CC1CN(CC2CCN(c3ncnc4scc(C5CCCCC5)c34)CC2)CC(C)O1 (stereo not shown) [Example 197]
  IC50: < 0.5 µM

## COCC1CCN(c2nc(N3CCC(CO)CC3)nc3scc(-c4ccccc4)c23)CC1 [Example 191]
  IC50: < 0.5 µM

## CN1CCCCC1CCOCC1CCN(c2ncnc3scc(-c4cccc(F)c4)c23)CC1 (stereo not shown) [Example 36, 5-(3-fluorophenyl)-4-[4-[2-(1-methyl-2-piperidyl)ethoxymethyl]-1-piperidyl]thieno[2,3-d]pyrimidine]
  IC50: < 0.5 µM

## OC1CCN(CC2CCN(c3ncnc4scc(C5CCCCC5)c34)CC2)C1 (stereo not shown) [Example 200]
  IC50: < 0.5 µM

## COc1cccc(-c2csc3ncnc(N4CCC(COCCN5CCCC5)CC4)c23)c1 [Example 312]
  IC50: < 0.5 µM

## Cc1sc2ncnc(N3CCC(CN4CCCC(N(C)C)C4)CC3)c2c1C (stereo not shown) [Example 234]
  IC50: < 0.5 µM
